Data reported in paper PMC7955952 (Pharmacology Research & Perspectives, 2021).

Target: Focal adhesion kinase (FAK) (Homo sapiens, UniProt Q05397)
Assay: biochemical

Sequence of Focal adhesion kinase (FAK) (Q05397 393-698): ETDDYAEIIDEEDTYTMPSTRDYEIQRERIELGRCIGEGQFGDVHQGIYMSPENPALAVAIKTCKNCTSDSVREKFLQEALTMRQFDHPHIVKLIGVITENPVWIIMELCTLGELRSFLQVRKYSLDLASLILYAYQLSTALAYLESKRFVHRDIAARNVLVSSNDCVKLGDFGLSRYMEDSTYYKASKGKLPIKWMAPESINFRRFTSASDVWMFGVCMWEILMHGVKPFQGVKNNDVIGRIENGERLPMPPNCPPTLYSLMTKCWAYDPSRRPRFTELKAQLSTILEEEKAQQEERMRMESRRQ

Compound: CS(=O)(=O)c1cccc(CNc2nc(Nc3ccc4c(c3)CCC(=O)N4)ncc2C(F)(F)F)c1 [PF573228, 6‐[[4‐[(3‐methylsulfonylphenyl)methylamino]‐5‐(trifluoromethyl)pyrimidin‐2‐yl]amino]‐3,4‐dihydro‐1H‐quinolin‐2‐one]
- IC50: 9 ± 0.03 nM
